{
  "source": "patent US20080166396A1",
  "about": "“Boronate Medicaments Suitable for Short Duration Anticoagulation” (Trigen Holdings AG Clareville House, priority 2004, published 2008)",
  "key": {"[1]": {"test": "Maximum aqueous solubility, salt shaken in water at 37° C., filtered, UV", "type": "physicochemical", "details": "25 mg of dried salt shaken in water at 37° C."}, "[2]": {"test": "Stability: HPLC assay before and after drying over phosphorus pentoxide for 1 week", "type": "physicochemical", "details": "listed as TRI 50c Lys salt; for Amount: 5 mg in 5 mL", "protocol": "An assay of TRI 50c and its sodium and lysine salts before and after drying.\nFor sample analysis, 5 mg of dried and non-dried material was weighed in a 5 mL volumetric flask and dissolved in 1 mL acetonitrile and filled up with demineralised water to 5 mL.\nThe quantitative evaluation was performed using an HPLC-PDA method."}, "human α-thrombin": {"target": "T1, human α-thrombin (Homo sapiens, UniProt P00734)", "T1 construct": "50 μl of human α-thrombin (0.25 NIHμ/ml) was added", "details": "reported by Deadman et al, J. Med. Chem. 1995; cited from earlier work"}, "Thrombin Time (TT)": {"tested_on": "Thrombin Time (TT)", "test": "Single oral doses of TGN 167 tablets in healthy male subjects", "type": "in vivo", "protocol": "TGN 167 tablets described above were administered via the oral route to 10 healthy male subjects as single doses (randomised double blind placebo controlled study). The group consisted of 10 healthy male volunteers, 9 of whom received active compound and one of whom received placebo. An amendment was introduced for the last panel, allowing 15 subjects (instead of 9) to receive a 600 mg dose. The interval between each dose of TGN 167 was one week minimum. The allocation of the placebo was such that each volunteer would only receive placebo once during the course of the study.\nOrally administered doses were: 75 mg (one tablet), 150 mg (two tablets), 300 mg (four tablets) and 600 mg (eight tablets)."}, "[3]": {"test": "Comparative storage stability of sodium and calcium salts (moisture-permeable packaging)", "type": "physicochemical", "text": "In both studies the active pharmaceutical ingredient was stored in gray sealed double bags within a PE/PP screw cap closed cylinder."}, "[4]": {"test": "Solubility of TRI 50c monosodium salt at different pH values / reconstitution", "type": "physicochemical", "text": "A first class of formulation, therefore, comprises particulate formulations, i.e. powders and granules, for oral administration after reconstitution into a liquid preparation, and preferably into a drinkable preparation. It is generally preferred for the liquid preparation to be a solution rather than a suspension and certain particulate formulations are for dissolving to form a drinking solution. The formulation may be for reconstitution into a suspension or more normally a solution having a volume of from about 50 ml to about 150 ml. The disclosure also contemplates reconstituted volumes of less than about 50 ml or of more than about 150 ml, e.g. of up to about 250 ml and more often of up to about 200 ml.\nHowever, a solution with a pH of 9.5 will often be undesirably distasteful to drink. Accordingly, a pharmaceutically acceptable organic acid may be included in the particulate formulation in an amount selected to reduce the pH to a value at which the solution is more palatable but at which a solution of drinkable quantity (e.g. about 50 ml to about 150 ml) may be formed by reconstituting the particulate formulation. As the organic acid may be mentioned citric acid, tartaric acid or malic acid, for example. In many instances, citric acid is chosen.\nIn a first series of experiments, this amount of the salt was dissolved in 50 ml water to form a solution of approximately pH 9.5. Dilute aqueous HCl was added to determine how much the pH could be reduced before precipitation occurred.\nIn a second series of experiments, the same amount of the salt was dissolved in 150 ml water, and citric acid was added. […] Since acid solutions tend to be more palatable than alkaline ones, and citric acid is a common flavouring agent, this behaviour of the salt is highly beneficial. […] In general, it is contemplated that the boronate will be formulated to form a reconstituted solution having a pH of from 4 to 8, e.g. 4 to 7, optionally 5 to 6."}, "[5]": {"test": "Excretion of administered dose as TRI 50c species", "details": "in vivo"}, "[6]": {"details": "dry (1 week over phosphorus pentoxide)"}},
  "note": "Counter-ions that a name gives are not always drawn. Marks after values point to notes of the source that are not given here.",
  "data": [
    {"smiles": "COCCC[C@H](NC(=O)[C@@H]1CCCN1C(=O)[C@@H](Cc1ccccc1)NC(=O)OCc1ccccc1)B(O)O", "note": "[Lithium Salt of TRI50C]", "values": [
      {"measurement": "observation on dissolution", "setting": "[1]", "value": "left a white residue of undissolved material"}
    ]},
    {"smiles": "COCCC[C@H](NC(=O)[C@@H]1CCCN1C(=O)[C@@H](Cc1ccccc1)NC(=O)OCc1ccccc1)B(O)O", "note": "[Lysine Salt of TRI50C]", "values": [
      {"measurement": "Amount", "setting": "[2]; [6]", "value": 813.3, "unit": "µg/mL"},
      {"measurement": "Purity", "setting": "[2]; [6]", "value": 90.17, "unit": "% area"},
      {"measurement": "Amount", "setting": "[2]; non-dried", "value": 809.8, "unit": "µg/mL"},
      {"measurement": "Purity", "setting": "[2]; non-dried", "value": 92.25, "unit": "% area"}
    ]},
    {"smiles": "CNC[C@H](O)[C@@H](O)[C@H](O)[C@H](O)CO.COCCC[C@H](NC(=O)[C@@H]1CCCN1C(=O)[C@@H](Cc1ccccc1)NC(=O)OCc1ccccc1)B(O)O", "note": "[N-METHYL-D-GLUCAMINE SALT OF TRI50C]", "values": [
      {"measurement": "observation on dissolution", "setting": "[1]", "value": "fully dissolve"}
    ]},
    {"smiles": "COCCC[C@H](NC(=O)[C@@H]1CCCN1C(=O)[C@@H](Cc1ccccc1)NC(=O)OCc1ccccc1)B([O-])O.[K+]", "note": "[Potassium Salt of TRI50C]", "values": [
      {"measurement": "observation on dissolution", "setting": "[1]", "value": "left a white residue of undissolved material"}
    ]},
    {"smiles": "COCCCC(NC(=O)C1CCCN1C(=O)C(Cc1ccccc1)NC(=O)OCc1ccccc1)B1OC(C)(C)C(C)(C)O1", "note": "[TRI 50b, Cbz-(R)-Phe-Pro-BoroMpg-OPinacol]", "values": [
      {"measurement": "Ki", "setting": "human α-thrombin", "value": 7, "unit": "nM"}
    ]},
    {"smiles": "COCCC[C@H](NC(=O)[C@@H]1CCCN1C(=O)[C@@H](Cc1ccccc1)NC(=O)OCc1ccccc1)B([O-])O.COCCC[C@H](NC(=O)[C@@H]1CCCN1C(=O)[C@@H](Cc1ccccc1)NC(=O)OCc1ccccc1)B([O-])O.[Ca+2]", "note": "[TRI 50c calcium salt]", "values": [
      {"measurement": "observation on dissolution", "setting": "[1]", "value": "left a white residue of undissolved material"},
      {"measurement": "time at which all TT had returned to baseline", "setting": "Thrombin Time (TT); after oral administration", "value": 10, "unit": "h"},
      {"measurement": "adverse clinical events (general or cardiovascular)", "setting": "Thrombin Time (TT); oral, any dose, study period of 24 hours", "value": "no adverse clinical events"},
      {"measurement": "Tri50c (w/w %, LOD corrected)", "setting": "[3]; T = 0, LOD = loss on drying", "value": "(99.7) w/w %"},
      {"measurement": "Tri50c (w/w %, LOD corrected)", "setting": "[3]; T = 1, 25° C./60% r.h.", "value": "(101.5) w/w %"},
      {"measurement": "Tri50c (w/w %, LOD corrected)", "setting": "[3]; T = 1, 40° C./75% r.h.", "value": "(100.6) w/w %"},
      {"measurement": "Tri50c (w/w %, LOD corrected)", "setting": "[3]; T = 1, −20° C.", "value": "(102.7) ^x w/w %"},
      {"measurement": "Tri50c (w/w %, LOD corrected)", "setting": "[3]; T = 3, 25° C./60% r.h.", "value": "(104.3) w/w %"},
      {"measurement": "Tri50c (w/w %, LOD corrected)", "setting": "[3]; T = 3, 40° C./75% r.h.", "value": "(82.0) w/w %"},
      {"measurement": "Tri50c (w/w %, LOD corrected)", "setting": "[3]; T = 3, −20° C.", "value": "(103.0) ^x w/w %"},
      {"measurement": "Tri50c (w/w %, LOD corrected)", "setting": "[3]; T = 12, 25° C./60% r.h.", "value": "(94.8 w/w) w/w %"}
    ]},
    {"smiles": "COCCC[C@H](NC(=O)[C@@H]1CCCN1C(=O)[C@@H](Cc1ccccc1)NC(=O)OCc1ccccc1)B(O)O.[Na+]", "note": "[TRI 50c monosodium salt, Cbz-(R)-Phe-(S)-Pro-(R)-Mpg-B(OH)2 monosodium salt]", "values": [
      {"measurement": "observation on dissolution", "setting": "[1]", "value": "left a white residue of undissolved material"},
      {"measurement": "concentration of boronate salt solution formed", "setting": "[4]; at a pH of about 9.5", "value": "up to 600 mg/ml"},
      {"measurement": "pH of solution", "setting": "[4]; salt equivalent to 600 mg TRI 50c dissolved in 10 ml water", "value": 9.88},
      {"measurement": "pH of solution", "setting": "[4]; salt equivalent to 600 mg TRI 50c dissolved in 50 ml water", "value": "~9.5"},
      {"measurement": "Tri50c (w/w %, LOD corrected)", "setting": "[3]; T = 0, LOD = loss on drying", "value": 101.5, "unit": "w/w %"},
      {"measurement": "Tri50c (w/w %, LOD corrected)", "setting": "[3]; T = 1, 25° C./60% r.h.", "value": 103.6, "unit": "w/w %"},
      {"measurement": "Tri50c (w/w %, LOD corrected)", "setting": "[3]; T = 1, 40° C./75% r.h.", "value": 94.5, "unit": "w/w %"},
      {"measurement": "Tri50c (w/w %, LOD corrected)", "setting": "[3]; T = 1, −20° C.", "value": 104.3, "unit": "w/w %"},
      {"measurement": "Tri50c (w/w %, LOD corrected)", "setting": "[3]; T = 3, 25° C./60% r.h.", "value": 100.4, "unit": "w/w %"},
      {"measurement": "Tri50c (w/w %, LOD corrected)", "setting": "[3]; T = 3, 40° C./75% r.h.", "value": 52.2, "unit": "w/w %"},
      {"measurement": "Tri50c (w/w %, LOD corrected)", "setting": "[3]; T = 12, 25° C./60% r.h.", "value": 71.2, "unit": "w/w %"},
      {"measurement": "administered dose excreted as TRI 50c species", "setting": "[5]", "value": 14, "unit": "%"}
    ]}
  ]
}
